Like-named read-outs stand apart in the source and are kept apart here.
Tests used:
CDK2/cyclin E1 = CDK2/cyclin E1 (Homo sapiens, UniProt P24941); test: CDK2/cyclin E1 ATPase assay (ADP-Glo; phosphorylation of histone H1)
Protocol: Following a 30-min preincubation of the enzyme and inhibitor in the reaction mixture at room temperature, reactions were initiated with the addition of ATP and histone H1. Kinase reactions were carried out at room temperature for 30 min before reactions were quenched with the addition of one volume of ADP-Glo™ reagent (Promega). Following a 60-min incubation at room temperature to remove excess ATP, two volumes of Kinase Detection Reagent (Promega) were added to the sample. The luminescence signal was allowed to develop for 30 min before being measured on a Spark multimode plate reader (Tecan). […] IC50 values were calculated from the dose–response curves using Prism 9 (four-parameter, variable slope).

[1] = molecular target: T1, luciferase-CDK2/cyclin E1 in HEK293 cells (Homo sapiens, UniProt P24941); test: cell-based; details: for inhibition at 50 µM: nanoBRET, read-out: inhibition at the highest concentration tested (IC50 ND); for IC50: average ± SD, n = 6, read-out: IC50, inhibition of luciferase-CDK2/cyclin E1 nanoBRET signal
T1 construct: NV2641 (CCNE1); host or cells: HEK293 (ATCC CRL-1573)
Protocol: HEK293 cells were cultured in Roswell Park Memorial Institute (RPMI) (Invitrogen) with 10% fetal bovine serum (FBS; Invitrogen). For transfection, HEK293 cells were trypsinized and resuspended in Opti-MEM I Reduced Serum, no phenol red medium (Invitrogen) with 1% FBS at a concentration of 2 × 10^5 cells/mL. Five hundred microliters of a 10 μg/mL solution of DNA was prepared by adding 1 μg/mL of CDK2-NanoLuc Fusion Vector (Promega; NV2781) to 9 μg/mL of CCNE1 Expression Vector (Promega; NV2641) in Opti-MEM I Reduced Serum, no phenol red media. Thirty microliters of FuGENE HD Transfection Reagent (Promega) was added to each milliliter of DNA mixture. The lipid-DNA mixture was incubated at room temperature for 20 min.
Posttransfection, the media were replaced with fresh Opti-MEM I Reduced Serum, no phenol red medium. NanoBRET Tracer reagent K-10 […] was added at a concentration of […] (1% DMSO final) along with 0.2% DMSO (± inhibitor). […] Following incubation, plates were removed from the incubator and allowed to equilibrate to room temperature for 15 min. A 3× Complete Substrate Plus Inhibitor Solution was made by adding 30 μL of NanoBRET Nano-Glo Substrate (Promega), 10 μL of Extracellular NanoLuc Inhibitor (Promega), and 4,960 μL of Opti-MEM reduced serum medium, no phenol red (Invitrogen). […] IC50 values were calculated from the dose–response curves using Prism 9 (four-parameter, variable slope). Experiments were performed in triplicate with technical duplicates in each run.

[2] = parameters: method as in PMID 27537356; details: isolated from A. fumigatus and P. roseopurpurin; ref [30], [31]; cited from earlier work
[3] = from CDK2/cyclin E1 IC50 values (Fig. 3B)
[4] = read-out: IC50, inhibition of CDK2/cyclin E1-dependent phosphorylation of Histone H1, commercially available depsides and depsidones, n=2

Cc1cc(O)c(C=O)c2c1C(=O)Oc1c(COC(=O)/C=C/C(=O)O)c(O)c(C(=O)O)c(C)c1O2 [Fumarprotocetriaric acid, fumarprotocetraric acid, reference compound]
effect on luminescence values in CDK2/cyclin E1 ADP-detection assay (CDK2/cyclin E1; commercial compound screen, n=2): increased luminescence values

CO[C@@]1(C)[C@H](O)C(O)=C(C)C(=O)[C@@H]1Oc1cc(C)cc(O)c1C [compound 11, aculeatusquinone C]
inhibition at 50 µM [1]: ≤ 50%
IC50 (CDK2/cyclin E1): 42 ± 2 µM
fold reduction in activity/potency relative to 1 (CDK2/cyclin E1; [3]): approximately 900 fold

Cc1cc(O)c(C)c2c1C(=O)Oc1c(C)c(O)c(C(=O)O)c(C)c1O2 [compound 7, hypoprotocetraric acid]
improvement of potency by addition of the 4-OH, relative to 8 (CDK2/cyclin E1; [3]): approximately ninefold

Cc1cc(O)c(C)c2c1Oc1c(C)c(O)cc(C)c1C(=O)O2 [compound 8, 3,8-dihydroxy-1,4,6,9-tetramethyl-dibenzo[b,e][1,4]dioxepin-11-one]
IC50 [1]: 27 ± 7 µM
IC50 (CDK2/cyclin E1): 6.1 ± 0.5 µM

Cc1cc(O)c(C)c(O)c1C(=O)Oc1cc(C)c(C(=O)O)c(O)c1C [compound 6, 4-o-demethyl barbatic acid]
inhibition at 50 µM [1]: ≤ 50%
inhibition at 100 µM (CDK2/cyclin E1; read-out: inhibition at the highest concentration tested (IC50 ND)): ≤ 50%

C/C=C(\C)c1cc(O)c(C)c2c1Oc1cc(O)cc(C)c1C(=O)O2 [unguinol, Unguinol, reference compound]
IC50 (CDK2/cyclin E1; [4]): 14 µM

CO[C@@]1(C)[C@H](O)C(=O)C(C)=C2OC(=O)c3c(C)cc(O)c(C)c3O[C@@H]21 [compound 1, roseopurpurin C]
cytotoxicity [2]: generally cytotoxic

C/C=C(/C)c1cc(O)c(C)c2c1Oc1c(C)c(O)cc(/C(C)=C\C)c1C(=O)O2 [folipastatin, reference compound]
IC50 (CDK2/cyclin E1; [4]): 24 µM

Cc1cc(O)c(C)c2c1C(=O)Oc1c(C)c(O)c(O)c(C)c1O2 [compound 10, roseopurpurin G]
IC50 [1]: 40 ± 20 µM
cytotoxicity [2]: generally cytotoxic
IC50 (CDK2/cyclin E1): 0.7 ± 0.1 µM

From publication PMC10691236 (Proceedings of the National Academy of Sciences of the …, 2023)
